PubChem BioAssay AID248 (DTP/NCI, 2004)
Values joined by “and” are separate entries in the source; they are usually repeats but may differ in a detail not shown here. Identical values can stand only once. Toxic doses and inconclusive results are not listed. Cut-off read from the data, not from the text of the source: active = T/C of 150% or more; inactive = T/C below 125%.

Tested on: L1210 leukemia ip in BDF1 mice, survival T/C
Test: NCI In Vivo Anticancer Drug Screen. Data for tumor model L1210 Leukemia (intraperitoneal) in B6D2F1 (BDF1) mice
Conditions: endpoint: mean survival time, higher = longer survival
In short: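 Each compound was tested against a transplantable tumor grown in mice. The endpoint was survival, with treated animals benchmarked against vehicle controls as a simple ratio.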

[1] = dose: 100.0 mg/kg/injection, schedule: Q04DX002 (ip), vehicle: Klucel (hydroxypropylcellulose) (HPC)
[2] = dose: 200.0 mg/kg/injection, schedule: Q04DX002 (ip), vehicle: Klucel (hydroxypropylcellulose) (HPC)
[3] = dose: 100.0 mg/kg/injection, schedule: Q01DX001 (ip), vehicle: saline
[4] = dose: 200.0 mg/kg/injection, schedule: Q01DX001 (ip), vehicle: saline
[5] = dose: 400.0 mg/kg/injection, schedule: Q01DX001 (ip), vehicle: saline
[6] = dose: 100.0 mg/kg/injection, schedule: Q01DX009 (ip), vehicle: saline
[7] = dose: 100.0 mg/kg/injection, schedule: Q04DX003 (ip), vehicle: saline
[8] = dose: 200.0 mg/kg/injection, schedule: Q01DX009 (ip), vehicle: saline
[9] = dose: 200.0 mg/kg/injection, schedule: Q04DX003 (ip), vehicle: saline
[10] = dose: 400.0 mg/kg/injection, schedule: Q04DX003 (ip), vehicle: saline
[11] = dose: 12.5 mg/kg/injection, schedule: Q04DX002 (ip), vehicle: Klucel (hydroxypropylcellulose) (HPC)
[12] = dose: 25.0 mg/kg/injection, schedule: Q04DX002 (ip), vehicle: Klucel (hydroxypropylcellulose) (HPC)

Measured: T/C

NC(=O)Nc1ccc(SCC(=O)O)cc1
inactive: [1] 106 % of control | [2] 95 % of control | dose: 400.0 mg/kg/injection, schedule: Q04DX002 (ip), vehicle: Klucel (hydroxypropylcellulose) (HPC) 113 % of control

Cc1cc(C)c(Br)c(C)c1C
inactive: [3] 104 % of control | [4] 113 % of control | [5] 116 % of control

CC12CC3CC(C1)CC(C(=O)O)(C3)C2
inactive: [6] 110 % of control | [7] 97 % of control | [8] 100 % of control | [9] 97 % of control | [10] 101 % of control

O=C1C=CC(=O)C2C3c4ccccc4C(c4ccccc43)C12 (stereo not given)
inactive: dose: 100.0 mg/kg/injection, schedule: Q01DX001 (ip), vehicle: saline with Tween-80 93 % of control | dose: 100.0 mg/kg/injection, schedule: Q04DX002 (ip), vehicle: saline 93 % of control | dose: 200.0 mg/kg/injection, schedule: Q01DX001 (ip), vehicle: saline with Tween-80 108 % of control | dose: 200.0 mg/kg/injection, schedule: Q04DX002 (ip), vehicle: saline 101 % of control | dose: 400.0 mg/kg/injection, schedule: Q01DX001 (ip), vehicle: saline with Tween-80 100 % of control | dose: 400.0 mg/kg/injection, schedule: Q04DX002 (ip), vehicle: saline 90 % of control

CC(C)(C)Nc1ccc(C#N)cc1
inactive: [11] 97 % of control | [12] 94 % of control | dose: 50.0 mg/kg/injection, schedule: Q04DX002 (ip), vehicle: Klucel (hydroxypropylcellulose) (HPC) 87 % of control

CCCCCCCCCC(CCCCCCCC(=O)O)NC(C)=O (stereo not given)
inactive: dose: 50.0 mg/kg/injection, schedule: Q01DX001 (ip), vehicle: saline 97 % of control | [3] 94 % of control | [4] 94 % of control | [5] 94 % of control

CCCCC1=Cc2cc3c(cc2C1N(C)C)OCO3 (stereo not given)
inactive: dose: 6.25 mg/kg/injection, schedule: Q04DX002 (ip), vehicle: Klucel (hydroxypropylcellulose) (HPC) 102 % of control | [11] 99 % of control | [12] 95 % of control and 105 % of control | [1] 92 % of control

CC(Cl)CNC(C)C (stereo not given)
inactive: [3] 103 % of control | [4] 92 % of control | [5] 103 % of control

CC1CCCC(C)N1C(=O)Nc1cccc(C(F)(F)F)c1 (stereo not given)
inactive: dose: 100.0 mg/kg/injection, schedule: Q01DX009 (ip), vehicle: gum acacia 108 % of control | dose: 200.0 mg/kg/injection, schedule: Q01DX009 (ip), vehicle: gum acacia 103 % of control

CN(C)c1ccc(/C(=N\O)c2cc[n+](C)cc2)cc1
inactive: dose: 1.56 mg/kg/injection, schedule: Q01DX009 (ip), vehicle: saline 98 % of control | dose: 3.13 mg/kg/injection, schedule: Q01DX009 (ip), vehicle: saline 111 % of control | dose: 6.25 mg/kg/injection, schedule: Q01DX009 (ip), vehicle: saline 104 % of control

CC(=O)OCCS(=O)(=O)c1c(Cl)c(Cl)c(Cl)c(Cl)c1Cl
inactive: [1] 95 % of control | [2] 88 % of control

O=C(CCl)Nc1cccc2c1C(=O)c1c(c(O)c3ccccc3c1O)C2=O
inactive: dose: 100.0 mg/kg/injection, schedule: Q04DX003 (ip), vehicle: saline with Tween-80 94 % of control | dose: 200.0 mg/kg/injection, schedule: Q04DX003 (ip), vehicle: saline with Tween-80 92 % of control | dose: 400.0 mg/kg/injection, schedule: Q04DX003 (ip), vehicle: saline with Tween-80 90 % of control

COc1cccc2c1CCC1=C2CC2C(=O)C1CCC2(C)O (stereo not given)
inactive: [6] 109 % of control | [7] 94 % of control | [8] 108 % of control | [9] 119 % of control | dose: 400.0 mg/kg/injection, schedule: Q01DX009 (ip), vehicle: saline 101 % of control | [10] 110 % of control

O=c1[nH]cc(CSC(=S)Nc2ccc(Cl)c(Cl)c2)c(=O)[nH]1
inactive: dose: 15.0 mg/kg/injection, schedule: Q04DX003 (ip), vehicle: saline with Tween-80 104 % of control | dose: 30.0 mg/kg/injection, schedule: Q04DX003 (ip), vehicle: saline with Tween-80 101 % of control | dose: 60.0 mg/kg/injection, schedule: Q04DX003 (ip), vehicle: saline with Tween-80 104 % of control
